Assay results published in ChEMBL document CHEMBL6078624, “Structure-based discovery of a 4,5-Dihydropyrazole-cored PET ligand for imaging of receptor-interacting serine/threonine-protein kinase 1 (RIPK1) in the brain” (Eur J Med Chem, 2024).

Key:
[1] = Biodistribution in male ICR mouse brain at 0.74 MBq, iv administered into tail vein measured at 10 mins post-injection by automatic gamma counter analysis; assay type: ADME, organism-based; conditions: in vivo
[2] = Biodistribution in male ICR mouse pancreas at 0.74 MBq, iv administered into tail vein measured at 60 mins post-injection by automatic gamma counter analysis; assay type: ADME, organism-based; conditions: in vivo, 1 h
[3] = Biodistribution in male ICR mouse heart at 0.74 MBq, iv administered into tail vein pre-treated with GSK'547 followed by compound addition by automatic gamma counter analysis relative to baseline; assay type: ADME, organism-based; conditions: in vivo
[4] = Drug uptake in male rat white matter region at 5 microCi/ml incubated for 30 mins by phosphor imager analysis; assay type: ADME, tissue-based, Brain white matter; conditions: 0.5 h
[5] = Biodistribution in male ICR mouse small intestine at 0.74 MBq, iv administered into tail vein measured at 60 mins post-injection by automatic gamma counter analysis; assay type: ADME, organism-based; conditions: in vivo, 1 h
[6] = Biodistribution in male ICR mouse bone at 0.74 MBq, iv administered into tail vein measured at 30 mins post-injection by automatic gamma counter analysis; assay type: ADME, organism-based, Bone element; conditions: in vivo, 0.5 h
[7] = Biodistribution in male ICR mouse lung at 0.74 MBq, iv administered into tail vein pre-treated with WL8 followed by compound addition by automatic gamma counter analysis relative to baseline; assay type: ADME, organism-based; conditions: in vivo
[8] = Biodistribution in male ICR mouse spleen at 0.74 MBq, iv administered into tail vein pre-treated with GSK'547 followed by compound addition by automatic gamma counter analysis relative to baseline; assay type: ADME, organism-based; conditions: in vivo
[9] = Biodistribution in male ICR mouse heart at 0.74 MBq, iv administered into tail vein measured at 60 mins post-injection by automatic gamma counter analysis; assay type: ADME, organism-based; conditions: in vivo, 1 h
[10] = Biodistribution in male ICR mouse bone at 0.74 MBq, iv administered into tail vein measured at 10 mins post-injection by automatic gamma counter analysis; assay type: ADME, organism-based, Bone element; conditions: in vivo
[11] = Biodistribution in male ICR mouse kidneys at 0.74 MBq, iv administered into tail vein measured at 60 mins post-injection by automatic gamma counter analysis; assay type: ADME, organism-based, Kidney; conditions: in vivo, 1 h
[12] = Biodistribution in male ICR mouse brain at 0.74 MBq, iv administered into tail vein pre-treated with GSK'547 by automatic gamma counter analysis; assay type: ADME, organism-based; conditions: in vivo
[13] = Biodistribution in male ICR mouse bone at 0.74 MBq, iv administered into tail vein measured at 60 mins post-injection by automatic gamma counter analysis; assay type: ADME, organism-based, Bone element; conditions: in vivo, 1 h
[14] = Biodistribution in male ICR mouse pancreas at 0.74 MBq, iv administered into tail vein by automatic gamma counter analysis; assay type: ADME, organism-based; conditions: in vivo
[15] = Drug degradation in male mouse brain assessed as parent compound remaining at 26.6 MBq by radio-HPLC analysis; assay type: ADME, tissue-based
[16] = Biodistribution in male ICR mouse muscle tissue at 0.74 MBq, iv administered into tail vein pre-treated with WL8 followed by compound addition by automatic gamma counter analysis relative to baseline; assay type: ADME, organism-based; conditions: in vivo
[17] = Biodistribution in male ICR mouse blood at 0.74 MBq, iv administered into tail vein measured at 60 mins post-injection by automatic gamma counter analysis; assay type: ADME, organism-based; conditions: in vivo, 1 h
[18] = Biodistribution in male ICR mouse stomach at 0.74 MBq, iv administered into tail vein pre-treated with WL8 followed by compound addition by automatic gamma counter analysis relative to baseline; assay type: ADME, organism-based; conditions: in vivo
[19] = Biodistribution in male ICR mouse heart at 0.74 MBq, iv administered into tail vein by automatic gamma counter analysis; assay type: ADME, organism-based; conditions: in vivo
[20] = Biodistribution in male ICR mouse kidneys at 0.74 MBq, iv administered into tail vein by automatic gamma counter analysis; assay type: ADME, organism-based, Kidney; conditions: in vivo
[21] = Drug degradation in male mouse plasma assessed as parent compound remaining at 26.6 MBq by radio-HPLC analysis; assay type: ADME, cell-free
[22] = Biodistribution in male ICR mouse blood at 0.74 MBq, iv administered into tail vein measured at 30 mins post-injection by automatic gamma counter analysis; assay type: ADME, organism-based; conditions: in vivo, 0.5 h
[23] = Biodistribution in male ICR mouse pancreas at 0.74 MBq, iv administered into tail vein pre-treated with WL8 followed by compound addition by automatic gamma counter analysis relative to baseline; assay type: ADME, organism-based; conditions: in vivo
[24] = Drug uptake in male Sprague-Dawley rat brain at 12.6 to 18.6 MBq, iv administered into tail vein measured at 1.5 mins post-injection by PET/CT imaging analysis; assay type: ADME, organism-based; conditions: in vivo, 0.025 h, dose 12.6-18.6 MBq
[25] = Biodistribution in male ICR mouse liver at 0.74 MBq, iv administered into tail vein pre-treated with GSK'547 followed by compound addition by automatic gamma counter analysis relative to baseline; assay type: ADME, organism-based; conditions: in vivo
[26] = Drug uptake in male Sprague-Dawley rat cortex at 12.6 to 18.6 MBq, iv administered into tail vein by PET/CT imaging analysis; assay type: ADME, organism-based; conditions: in vivo, dose 12.6-18.6 MBq
[27] = Drug uptake in male mouse cerebellum at 5 microCi/ml incubated for 30 mins by phosphor imager analysis; assay type: ADME, tissue-based; conditions: 0.5 h
[28] = Biodistribution in male ICR mouse blood at 0.74 MBq, iv administered into tail vein pre-treated with GSK'547 followed by compound addition by automatic gamma counter analysis; assay type: ADME, organism-based; conditions: in vivo
[29] = Biodistribution in male ICR mouse brain at 0.74 MBq, iv administered into tail vein measured at 60 mins post-injection by automatic gamma counter analysis; assay type: ADME, organism-based; conditions: in vivo, 1 h
[30] = Biodistribution in male ICR mouse small intestine 0.74 MBq, iv administered into tail vein pre-treated with GSK'547 followed by compound addition by automatic gamma counter analysis relative to baseline; assay type: ADME, organism-based; conditions: in vivo
[31] = Biodistribution in male ICR mouse lung at 0.74 MBq, iv administered into tail vein pre-treated with GSK'547 followed by compound addition by automatic gamma counter analysis relative to baseline; assay type: ADME, organism-based; conditions: in vivo
[32] = Biodistribution in male ICR mouse bone at 0.74 MBq, iv administered into tail vein pre-treated with GSK'547 followed by compound addition by automatic gamma counter analysis; assay type: ADME, organism-based, Bone element; conditions: in vivo
[33] = Stability of compound in saline at 37 degreeC incubated for 6 hrs by HPLC analysis; assay type: physicochemical; conditions: buffer
[34] = Biodistribution in male ICR mouse bone at 0.74 MBq, iv administered into tail vein pre-treated with GSK'547 followed by compound addition by automatic gamma counter analysis relative to baseline; assay type: ADME, organism-based, Bone element; conditions: in vivo
[35] = Biodistribution in male ICR mouse spleen at 0.74 MBq, iv administered into tail vein pre-treated with WL8 followed by compound addition by automatic gamma counter analysis relative to baseline; assay type: ADME, organism-based; conditions: in vivo
[36] = Biodistribution in male ICR mouse blood at 0.74 MBq, iv administered into tail vein measured at 10 mins post-injection by automatic gamma counter analysis; assay type: ADME, organism-based; conditions: in vivo
[37] = Biodistribution in male ICR mouse blood at 0.74 MBq, iv administered into tail vein pre-treated with WL8 followed by compound addition by automatic gamma counter analysis relative to baseline; assay type: ADME, organism-based; conditions: in vivo
[38] = Biodistribution in male ICR mouse kidney at 0.74 MBq, iv administered into tail vein pre-treated with WL8 followed by compound addition by automatic gamma counter analysis relative to baseline; assay type: ADME, organism-based; conditions: in vivo
[39] = Biodistribution in male ICR mouse small intestine at 0.74 MBq, iv administered into tail vein pre-treated with WL8 followed by compound addition by automatic gamma counter analysis relative to baseline; assay type: ADME, organism-based; conditions: in vivo

With `Cc1ccc(C2CC=NN2C(=O)C2CCN(C(=O)c3cccc([18F])n3)CC2)cc1F` (centres undefined) the Drug uptake [1] was 1.34 % ID/g, the Drug uptake [2] was under 4 % ID/g and the Drug uptake [3] was “Active”. For the same compound, the Drug uptake [4] was “Active”, the Drug uptake [5] was 20.75 % ID/g and the Drug uptake [6] was 7.94 % ID/g. For the same compound, the Drug uptake [7] was “Active”, the Drug uptake [8] was “Active” and the Drug uptake [9] was under 4 % ID/g. For the same compound, the Drug uptake [10] was 3.6 % ID/g, the Drug uptake [11] was under 4 % ID/g and the Drug uptake [12] was 91%. It also gave a Drug uptake [13] of 6.69 % ID/g, a Drug uptake [14] of over 6.5 % ID/g and a Stability [15] of 35.2%. The Drug uptake [16] was “Active”, the Drug uptake [17] was 0.97 % ID/g and the Drug uptake [18] was “Active”. It also gave a Drug uptake [19] of over 6.5 % ID/g, a Drug uptake [20] of over 6.5 % ID/g and a Stability [21] of 10.8%. For the same compound, the Drug uptake [22] was 2.55 % ID/g, the Drug uptake [23] was “Active” and the SUVmax [24] was 0.81. For the same compound, the Drug uptake [25] was “Active”, the SUV [26] was “Active” and the Drug uptake [27] was “Active”. The Drug uptake [28] was over 58%, the Drug uptake [29] was 0.14 % ID/g and the Drug uptake [30] was “Not_active”. The Drug uptake [31] was “Active”, the Drug uptake [32] was over 29% and the Stability [33] was “Stable”. The Drug uptake [34] was “Not_active”, the Drug uptake [35] was “Active” and the Drug uptake [36] was 5.32 % ID/g. For the same compound, the Drug uptake [37] was “Active”, the Drug uptake [38] was “Active” and the Drug uptake [39] was “Not_active”.
